Test results from patent US7098219B2, “Inhibitors of cellular efflux pumps of microbes” (Wockhart Limited, priority 2000, dated 2006).

What was measured:
[1] = test system: Pseudomonas aeruginosa 23587; experiment: Antibiotic diffusion assay, levofloxacin plate versus water control plate; format: cell-based; details: zone of inhibition in levofloxacin (5 mcg/ml) plate minus water control plate; Mueller Hinton Agar, 35° C. 20 hours
Description: Testing method for Inhibition of the Efflux Pumps of Pseudomonas aeruzinosa 23587, E. coli 2051, Streptococcus pneumoniae 3514 and Streptococcus pyozenus 26-00
Antibiotic Diffusion Assay
The activity of efflux pump inhibitor was also assessed using an antibiotic diffusion assay. For this assay Pseudomonas aeruginosa 23587 is used. Pseudomonas aeruginosa 23587 is a clinical isolate containing multiple efflux pumps which can be mexAB, mexCD, mexEF but not limited to mex classification only. Pseudomonas aeruginosa are grown in tryptic soya broth for 20 hours at 35° C. Two antibiotic assay plates are prepared in Mueller Hinton Agar using above inoculum. The bacterial count in a plate is 1×10^6 cells/ml. In one of the plates, levofloxacin is incorporated at 5 mcg/ml, while in the control plate an equivalent amount of water is added. […]. The plates are incubated at 35° C. for 20 hours and the zone of inhibition was recorded in mm (table 2). The difference in the diameter of zone of inhibition was calculated by subtracting from the diameter of the zone of inhibition in the levofloxacin containing plate the diameter of the zone of inhibition in the water containing control plate. Example, if the diameter of the zone of inhibition in the levofloxacin plate is X mm and the diameter of the zone of inhibition in the control plate is Y mm, the difference Z=X−Y and is a measure of the activity of the efflux pump inhibitor.

[2] = test system: Staphylococcus aureus 1199 B NorA+; format: cell-based; details: combination with ciprofloxacin, broth microdilution checkerboard, 35° C. 20 hours; FIC index ≦0.5 synergistic, 0.5–2.0 additive, >2.0 antagonistic
How it was run: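 Broth microdilution checkerboard with ciprofloxacin against S. aureus 1199B NorA+, pump inhibitor titrated along one axis; inoculum 5×10^5 CFU/ml in Mueller Hinton broth, 35 °C for 20 hours. Growth read by visible turbidity, confirmed by plate reader; FIC index derived from inhibitor MIC in combination versus alone.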

Row | Compound | Difference in Zone diameter Z1 (mm) [1] | FIC INDEX [2]
1 | (S)-(−)-9-Fluoro-6,7-dihydro-8-(4′-hydroxypiperidin-1-yl)-5-methyl-1-oxo-1H,5H-benzo[i,j]quinolizine-2-carboxylic acid. (L) histidine salt [Example 25 (P. aeruginosa)] | 5 mm | 
2 | CCOC(=O)C1(N)CCN(c2c(F)c(N)c3c(=O)c(C(=O)O)cn(C4CC4)c3c2F)C1 (stereo not drawn) [Example 17 (P. aeruginosa)] | 8 mm | 
3 | COc1c(N2CCC(N(C)C)CC2)c(F)cc2c(=O)c(C(=O)O)cn(C3CC3)c12 [Example 7 (P. aeruginosa), 1-Cyclopropyl-6-fluoro-8-methoxy-1,4-dihydro-7-{4′-dimethylaminopiperidin-1-yl}-4-oxo-quinoline-3-carboxylic acid] | 5 mm | 
4 | CC1CN(c2c(F)cc3c(=O)c(C(=O)O)cn4c3c2CCC4C)CCC1O (racemic) [Example 34 (P. aeruginosa), (RS)-(+)-9-Fluoro-6,7-dihydro-8-(cis-4′-hydroxy-3′-methylpiperidin-1-yl}-5-methyl-1H,5H-benzo[i,j]quinolizine-2-carboxylic acid] | 6 mm | 
5 | O=C(O)c1cn(-c2ccc(F)cc2F)c2nc(NC3CCNCC3)c(F)cc2c1=O [Example 50 (NorA), 1-(2′,4′-Difluorophenyl)-6-fluoro-1,4-dihydro-7-(piperidin-4-yl-amino)-4-oxo-1,8-naphthyridine-3-carboxylic acid] | 6 mm | 0.314
6 | COc1c(N2CCC(C)(O)CC2)c(F)cc2c(=O)c(C(=O)O)cn(C3CC3)c12 [Example 8 (P. aeruginosa), 1-Cyclopropyl-6-fluoro-8-methoxy-1,4-dihydro-7-(4′-hydroxy-4′-methylpiperidin-1-yl)-4-oxo-quinoline-3-carboxylic acid] | 5 mm | 
7 | C[C@@H]1CCc2c(N3CCC(OC(=O)[C@H](N)Cc4ccccc4)CC3)c(F)cc3c(=O)c(C(=O)O)cn1c23.Cl (racemic) [Example 26 (P. aeruginosa), (RS)-(±)-9-Fuoro-6,7-dihydro-8-{4′-(D-phenylalaninoxy)piperidin-1-yl}-5-methyl-1-oxo-1H,5H-benzo[i,j]quinolizine-2-carboxylic acid hydrochloride] | 12 mm | 
8 | CCC1CN(c2nc3c(cc2F)c(=O)c(C(=O)O)cn3C2CC2)CCC1N (stereo not drawn) [Example 20 (P. aeruginosa), 1-Cyclopropyl-6-fluoro-1,4-dihydro-7-(4′-amino-3′-ethylpiperidin-1-yl)-4-oxo-naphthyridine-3-carboxylic acid] | 6 mm | 
9 | NCC1CN(c2c(F)c(N)c3c(=O)c(C(=O)O)cn(C4CC4)c3c2F)CCC1O (stereo not drawn) [Example 11 (P. aeruginosa), 5-Amino-1-(cyclopropyl)-6,8-difluoro-1,4-dihydro-7-(3′-aminomethyl-4′-hydroxy-piperidin-1-yl)-4-oxo-quinoline-3-carboxylic acid] | 3 mm | 
10 | Cc1c(F)c(N2CCC(O)C(CN)C2)c(F)c2c1c(=O)c(C(=O)O)cn2C1CC1 (stereo not drawn) [Example 25 (NorA), 1-Cyclopropyl-6,8-difluoro-5-methyl-1,4-dihydro-7-(4′-hydroxy-3′-aminomethylpiperidin-1-yl)-4-oxo-quinoline-3-carboxylic acid] | 5 mm | 0.192
11 | O=C(O)c1cn(C2CC2)c2nc(NC3CCNC3)c(F)cc2c1=O (stereo not drawn) [Example 49 (NorA), 1-Cyclopropyl-6-fluoro-1,4-dihydro-7-(pyrrolidin-3-yl-amino)-4-oxo-1,8naphthyridine-3-carboxylic acid] | 6 mm | 0.188
12 | COC1CCN(c2cc3c(c(C)c2F)c(=O)c(C(=O)O)cn3C2CC2)CC1 [Example 1 (P. aeruginosa), 1-Cyclopropyl-6-fluoro-1,4-dihydro-5-methyl-7-(4′-methoxypiperidin-1-yl)-4-oxo-quinoline-3-carboxylic acid] | 13 mm | 
13 | CCNC1CCN(c2c(F)c(N)c3c(=O)c(C(=O)O)cn(C4CC4)c3c2OC)CC1(C)C (stereo not drawn) [Example 5 (P. aeruginosa), 5-Amino-1-cyclopropyl-6-fluoro-8-methoxy-1,4-dihydro-7-{3′,3′-dimethyl-4′-ethylaminopiperidin-1-yl}-4-oxo-quinoline-3-carboxylic acid] | 3 mm | 
14 | CC1CCc2c(N3CC[C@@H](O)[C@H](C)C3)c(F)cc3c(=O)c(C(=O)O)cn1c23 (mixture of isomers) [Example 33 (P. aeruginosa), (RS)-(+)-9-Fluoro-6,7-dihydro-8-(trans-4′-hydroxy-3′-methylpiperidin-1-yl)-5-methyl-1-oxo-1H,5H-benzo[i,j]quinolizine-2-carboxylic acid] | 6 mm | 
15 | CCn1cc(C(=O)O)c(=O)c2cc(F)c(N3CC4C(N)C4C3)c(F)c21 (stereo not drawn) [Example 4 (NorA), 1-Ethyl-6,8-difluoro-1,4-dihydro-7-{(1∝,5∝,6∝)-6-amino-3-azabicyclo[3.1.01]-hex-3-yl}-4-oxo-quinoline-3-carboxylic acid] | 7 mm | 0.192
16 | CCN1CCN(c2cc3c(cc2F)c(=O)c(C(=O)O)cn3C2CC2)CC1C (stereo not drawn) [Example 13 (P. aeruginosa), 1-Cyclopropyl-6-fluoro-1,4-dihydro-7-(4′-ethyl-3′-methylpiperazin-1-yl)-4-oxo-quinoline-3-carboxylic acid] | 4 mm | 
17 | Nc1c(F)c(N2CCC(N)C2)c(F)c2c1c(=O)c(C(=O)O)cn2-c1ccc(F)cc1F (stereo not drawn) [Example 16 (P. aeruginosa), 5-Amino-1-(2′,4′-difluorophenyl)-6,8-difluoro-1,4-dihydro-7-(3-aminopyrrolidine-1-yl)-4-oxo-quinoline-3-carboxylic acid] | 3 mm | 
18 | COc1c(N2CCC(N)C(C)C2)c(F)c(N)c2c(=O)c(C(=O)O)cn(C3CC3)c12 (stereo not drawn) [Example 4 (P. aeruginosa), 5-Amino-1-cyclopropyl-6-fluoro-8-methoxy-1,4-dihydro-7-(4′-amino-3′-methylpiperidin-1-yl)-4-oxo-quinoline-3-carboxylic acid] | 5 mm | 
19 | COc1c(N2CCC(O)C(C)(C)C2)c(F)cc2c(=O)c(C(=O)O)cn(C3CC3)c12 (stereo not drawn) [Example 21 (NorA), 1-Cyclopropyl-6-fluoro-8-methoxy-1,4-dihydro-7-(4′-hydroxy-3′,3′-dimethylpiperidin-1-yl)-4-oxo-quinoline-3-carboxylic acid] | 8 mm | 0.264
20 | C[C@H](N)C(=O)OC1CCN(c2c(F)cc3c(=O)c(C(=O)O)cn4c3c2CC[C@@H]4C)CC1.Cl [Example 30 (P. aeruginosa), (S)-(−)-9-Fluoro-6,7-dihydro-8-{4′-(L-alanyloxy)piperidin-1-yl}-5-methyl-1-oxo-1H,5H-benzo[i,j]quinolizine-2-carboxylic acid hydrochloride] | 9 mm | 
21 | CCN1C(C)CN(c2cc3c(cc2F)c(=O)c(C(=O)O)cn3C2CC2)CC1C (stereo not drawn) [Example 16 (NorA), 1-Cyclopropyl-6-fluoro-1,4-dihydro-7-(3′,5′-dimethyl-4′-ethylpiperazin-1-yl)-4-oxo-quinoline-3-carboxylic acid] | 8 mm | 0.314
